Common to all, as to assay type: cell-based
The target of one assay is T1, human TLR9 (Homo sapiens, UniProt Q9NR96).
T1 construct: host or cells: HEK-Blue cells (HEK293-derived reporter line)
T1 sequence (Q9NR96 26-1032): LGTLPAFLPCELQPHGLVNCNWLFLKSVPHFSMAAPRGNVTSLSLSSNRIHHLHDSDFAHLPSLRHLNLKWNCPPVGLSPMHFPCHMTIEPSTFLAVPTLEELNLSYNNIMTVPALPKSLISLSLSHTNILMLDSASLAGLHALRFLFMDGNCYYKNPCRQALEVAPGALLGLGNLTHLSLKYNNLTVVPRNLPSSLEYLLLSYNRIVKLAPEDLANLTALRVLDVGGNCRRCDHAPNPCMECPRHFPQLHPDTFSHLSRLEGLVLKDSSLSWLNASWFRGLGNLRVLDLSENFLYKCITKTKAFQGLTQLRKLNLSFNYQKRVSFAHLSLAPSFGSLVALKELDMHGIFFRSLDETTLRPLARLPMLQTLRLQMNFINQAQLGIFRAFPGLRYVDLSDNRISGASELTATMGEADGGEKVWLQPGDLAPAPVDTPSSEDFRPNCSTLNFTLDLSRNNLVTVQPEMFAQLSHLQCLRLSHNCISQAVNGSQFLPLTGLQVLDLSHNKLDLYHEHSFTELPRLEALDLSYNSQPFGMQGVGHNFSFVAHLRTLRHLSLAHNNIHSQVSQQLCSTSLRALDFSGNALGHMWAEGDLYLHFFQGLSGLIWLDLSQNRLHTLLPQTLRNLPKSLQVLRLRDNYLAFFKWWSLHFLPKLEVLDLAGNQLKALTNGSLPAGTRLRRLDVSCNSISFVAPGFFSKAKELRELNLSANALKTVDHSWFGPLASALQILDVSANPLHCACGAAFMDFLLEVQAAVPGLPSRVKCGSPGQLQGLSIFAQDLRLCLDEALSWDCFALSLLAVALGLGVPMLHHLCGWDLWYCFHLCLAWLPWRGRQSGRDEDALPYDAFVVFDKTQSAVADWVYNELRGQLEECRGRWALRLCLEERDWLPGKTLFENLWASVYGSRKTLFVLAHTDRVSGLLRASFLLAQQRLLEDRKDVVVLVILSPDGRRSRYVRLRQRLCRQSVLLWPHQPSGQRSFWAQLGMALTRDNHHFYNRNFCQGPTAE
The assay is described as follows: TLR9 inhibition reporter assay (HEK-Blue SEAP). The settings on record: HEK-Blue cells overexpressing human TLR9, ODN2006 5 nM, 22 hour incubation. As to the method: (§1) TLR7/8/9 Inhibition Reporter Assays
(§2) HEK-Blue™-cells (Invivogen) overexpressing human TLR7, TLR8 or TLR9 receptors were used for screening inhibitors of these receptors using an inducible SEAP (secreted embryonic alkaline phosphatase) reporter gene under the control of the IFN-β minimal promoter fused to five NF-κB and AP-1-binding sites. Briefly, cells are seeded into Greiner 384 well plates (15000 cells per well for TLR7, 20,000 for TLR8 and 25,000 for TLR9) and then treated with test compounds in DMSO to yield a final dose response concentration range of 0.05 nM-50 μM. After a 30 minute compound pre-treatment at room temperature, the cells are then stimulated with a TLR7 ligand (gardiquimod at a final concentration of 7.5 μM), TLR8 ligand (R848 at a final concentration of 15.9 μM) or TLR9 ligand (ODN2006 at a final concentration of 5 nM) to activate NF-κB and AP-1 which induce the production of SEAP. After a 22 hour incubation at 37° C., 5% CO2, SEAP levels are determined with the addition of HEK-Blue™ Detection reagent (Invivogen), a cell culture medium that allows for detection of SEAP, according to manufacturer's specifications. The percent inhibition is determined as the % reduction in the HEK-Blue signal present in wells treated with agonist plus DMSO alone compared to wells treated with a known inhibitor.

The target of the next assay is T2, human TLR7 (Homo sapiens, UniProt Q9NYK1).
T2 construct: host or cells: HEK-Blue cells (HEK293-derived reporter line)
T2 sequence (Q9NYK1 27-1049): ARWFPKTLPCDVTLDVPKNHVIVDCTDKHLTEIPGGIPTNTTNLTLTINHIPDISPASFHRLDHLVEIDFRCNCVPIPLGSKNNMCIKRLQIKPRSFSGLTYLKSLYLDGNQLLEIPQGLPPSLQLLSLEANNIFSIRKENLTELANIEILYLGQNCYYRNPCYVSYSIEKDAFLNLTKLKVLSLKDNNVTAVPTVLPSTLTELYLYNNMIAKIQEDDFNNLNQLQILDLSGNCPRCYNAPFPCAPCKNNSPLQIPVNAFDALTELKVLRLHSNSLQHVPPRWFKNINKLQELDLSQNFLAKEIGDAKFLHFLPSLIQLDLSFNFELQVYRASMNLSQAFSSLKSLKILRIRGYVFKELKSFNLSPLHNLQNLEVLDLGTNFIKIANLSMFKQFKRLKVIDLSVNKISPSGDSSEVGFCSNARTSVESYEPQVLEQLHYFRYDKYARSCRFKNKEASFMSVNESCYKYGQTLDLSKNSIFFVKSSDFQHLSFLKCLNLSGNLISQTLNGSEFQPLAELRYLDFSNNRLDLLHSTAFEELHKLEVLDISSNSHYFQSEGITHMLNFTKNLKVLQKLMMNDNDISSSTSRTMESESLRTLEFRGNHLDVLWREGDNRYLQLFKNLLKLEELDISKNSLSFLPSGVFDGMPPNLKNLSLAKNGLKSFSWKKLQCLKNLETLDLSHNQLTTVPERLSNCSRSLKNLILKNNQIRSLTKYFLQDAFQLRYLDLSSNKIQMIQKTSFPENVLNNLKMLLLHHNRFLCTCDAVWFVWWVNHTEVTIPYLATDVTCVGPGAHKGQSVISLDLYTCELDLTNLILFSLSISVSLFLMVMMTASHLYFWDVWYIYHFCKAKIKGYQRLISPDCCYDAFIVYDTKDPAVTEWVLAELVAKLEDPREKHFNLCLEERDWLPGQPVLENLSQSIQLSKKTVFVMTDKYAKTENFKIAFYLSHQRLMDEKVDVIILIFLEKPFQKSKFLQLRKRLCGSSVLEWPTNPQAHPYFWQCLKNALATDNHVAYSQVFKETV
Put plainly: TLR7 inhibition reporter assay (HEK-Blue SEAP). The following applies: HEK-Blue cells overexpressing human TLR7, gardiquimod 7.5 μM, 22 hour incubation. The method, then: as §1, §2

Another assay concerns the target T3, human TLR8 (Homo sapiens, UniProt Q9NR97).
T3 construct: host or cells: HEK-Blue cells (HEK293-derived reporter line)
T3 sequence (Q9NR97 27-1041): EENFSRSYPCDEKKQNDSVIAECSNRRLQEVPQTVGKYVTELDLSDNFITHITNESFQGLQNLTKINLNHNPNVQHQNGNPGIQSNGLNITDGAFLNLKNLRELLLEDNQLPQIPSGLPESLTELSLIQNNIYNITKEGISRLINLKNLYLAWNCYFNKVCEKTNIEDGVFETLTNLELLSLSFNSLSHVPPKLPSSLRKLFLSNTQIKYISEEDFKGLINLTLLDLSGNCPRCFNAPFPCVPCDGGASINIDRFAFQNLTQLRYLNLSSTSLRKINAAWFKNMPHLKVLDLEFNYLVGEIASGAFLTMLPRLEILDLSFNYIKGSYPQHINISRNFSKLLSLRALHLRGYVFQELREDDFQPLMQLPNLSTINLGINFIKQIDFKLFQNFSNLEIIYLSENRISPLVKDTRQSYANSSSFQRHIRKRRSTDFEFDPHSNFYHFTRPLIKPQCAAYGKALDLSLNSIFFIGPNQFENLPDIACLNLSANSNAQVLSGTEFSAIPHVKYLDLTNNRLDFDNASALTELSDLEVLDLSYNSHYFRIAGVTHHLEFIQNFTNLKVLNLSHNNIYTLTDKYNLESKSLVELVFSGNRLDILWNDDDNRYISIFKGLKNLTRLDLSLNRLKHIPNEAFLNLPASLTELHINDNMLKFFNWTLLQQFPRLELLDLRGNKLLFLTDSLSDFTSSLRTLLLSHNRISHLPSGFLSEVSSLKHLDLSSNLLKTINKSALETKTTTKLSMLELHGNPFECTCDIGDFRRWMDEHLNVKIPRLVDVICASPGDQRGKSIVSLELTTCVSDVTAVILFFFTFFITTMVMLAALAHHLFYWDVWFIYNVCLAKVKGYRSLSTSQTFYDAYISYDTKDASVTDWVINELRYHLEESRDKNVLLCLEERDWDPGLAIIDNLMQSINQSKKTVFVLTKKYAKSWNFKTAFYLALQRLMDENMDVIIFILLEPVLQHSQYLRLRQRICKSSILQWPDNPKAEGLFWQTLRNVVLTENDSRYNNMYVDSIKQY
The assay is described as follows: TLR8 inhibition reporter assay (HEK-Blue SEAP). The following applies: HEK-Blue cells overexpressing human TLR8, R848 15.9 μM, 22 hour incubation. As to the method: as §1, §2

On to `COc1cc(-c2[nH]c3ccc(C4CCN(CCNC(=O)CCCCCCC(=O)NCCN5CCC(c6ccc7[nH]c(-c8cc(OC)c9ncnn9c8)c(C(C)C)c7c6)CC5)CC4)cc3c2C(C)C)cn2ncnc12` [Example 6, N1,N8-bis(2-(4-(3-isopropyl-2-(8-methoxy-[1,2,4]triazolo[1,5-a]pyridin-6-yl)-1H-indol-5-yl)piperidin-1-yl)ethyl)octanediamide], for which the IC50 is 148 nM on human TLR9, 0.17 nM at human TLR7 and 0.2 nM against human TLR8.

As for `COc1cc(-c2[nH]c3ccc(C4CCN(CCNC(=O)CCCCCCCCC(=O)NCCN5CCC(c6ccc7[nH]c(-c8cc(OC)c9ncnn9c8)c(C(C)C)c7c6)CC5)CC4)cc3c2C(C)C)cn2ncnc12` [Example 7, N1,N10-bis(2-(4-(3-isopropyl-2-(8-methoxy-[1,2,4]triazolo[1,5-a]pyridin-6-yl)-1H-indol-5-yl)piperidin-1-yl)ethyl)decanediamide], the IC50 against human TLR9 was 98 nM; against human TLR7, 0.14 nM; against human TLR8, 0.24 nM.

For `COc1cc(-c2[nH]c3ccc(C4CCN(CCNC(=O)CCCCCC(=O)NCCN5CCC(c6ccc7[nH]c(-c8cc(OC)c9ncnn9c8)c(C(C)C)c7c6)CC5)CC4)cc3c2C(C)C)cn2ncnc12` [Example 8, N1,N7-bis(2-(4-(3-isopropyl-2-(8-methoxy-[1,2,4]triazolo[1,5-a]pyridin-6-yl)-1H-indol-5-yl)piperidin-1-yl)ethyl)heptanediamide], the IC50 against human TLR9 stood at 175 nM; at human TLR7 it was 0.19 nM; against human TLR8, 0.28 nM.

Turning to `COc1cc(-c2[nH]c3ccc(C4CCN(CCNC(=O)CCCCC(=O)NCCN5CCC(c6ccc7[nH]c(-c8cc(OC)c9ncnn9c8)c(C(C)C)c7c6)CC5)CC4)cc3c2C(C)C)cn2ncnc12` [Example 9, N1,N6-bis(2-(4-(3-isopropyl-2-(8-methoxy-[1,2,4]triazolo[1,5-a]pyridin-6-yl)-1H-indol-5-yl)piperidin-1-yl)ethyl)adipamide], the values for the half-maximal inhibitory concentration (IC50) against human TLR9, against human TLR7 and against human TLR8 were 348 nM, 0.19 nM and 0.59 nM, respectively.

As to `COc1cc(-c2[nH]c3ccc(C4CCN(CCNC(=O)CCC(=O)NCCN5CCC(c6ccc7[nH]c(-c8cc(OC)c9ncnn9c8)c(C(C)C)c7c6)CC5)CC4)cc3c2C(C)C)cn2ncnc12` [Example 11, N1,N4-bis(2-(4-(3-isopropyl-2-(8-methoxy-[1,2,4]triazolo[1,5-a]pyridin-6-yl)-1H-indol-5-yl)piperidin-1-yl)ethyl)succinamide], the IC50 at human TLR9 worked out at 4600 nM; at human TLR7, 17 nM; against human TLR8, 143 nM.

With `COc1cc(-c2[nH]c3ccc(C4CCN(CCCCCCCCCCCCCCCCCCN5CCC(c6ccc7[nH]c(-c8cc(OC)c9ncnn9c8)c(C(C)C)c7c6)CC5)CC4)cc3c2C(C)C)cn2ncnc12` [Example 12, 1,18-bis(4-(3-isopropyl-2-(8-methoxy-[1,2,4]triazolo[1,5-a]pyridin-6-yl)-1H-indol-5-yl)piperidin-1-yl)octadecane], the concentration for half-maximal inhibition (IC50) against human TLR9 is 13400 nM; at human TLR7, 191 nM; at human TLR8, 509 nM.

Turning to “N1,N12-bis(2-(4-(3-isopropyl-2-(8-methoxy-[1,2,4]triazolo[1,5-a]pyridin-6-yl)-1H-indol-5-yl)piperidin-1-yl)ethyl)dodecanediamide [Example 10]”, the values for the IC50 against human TLR9, on human TLR7 and on human TLR8 were 44 nM, 1.3 nM and 1.1 nM, respectively.
